Measurements taken from paper PMC8296573, “Synthesis and Biological Evaluation of Fingolimod Derivatives as Antibacterial Agents” (ACS Omega, 2021).
≈ marks a conversion by molar mass, not a printed value. Like-named read-outs stand apart in the source and are kept apart here.

Legend:
S. aureus ATCC 25923 [1] = test: Antibacterial activity, post-exposure on preformed 18-h-old biofilms; type: cell-based, Staphylococcus aureus; settings: for Average inhibition %, biofilms viability / Average inhibition %, planktonic cells viability / inhibition at 25 µM / inhibition at 50 µM / inhibition at 100 µM / inhibition at 200 µM: ± SD; for inhibition at 25 µM / inhibition at 50 µM / inhibition at 100 µM / inhibition at 200 µM: Staphylococcus aureus; for inhibition at 25 µM: ATCC25923, 25 µM; for inhibition at 50 µM: ATCC25923, 50 µM; for inhibition at 100 µM: ATCC25923, 100 µM; for inhibition at 200 µM: ATCC25923, 200 µM
Summary of the method: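 Biofilms grown 18 h without compound, medium then replaced and compound added for a further 24 h. Planktonic OD and resazurin (20 μM final) fluorescence (ex 560/em 590 nm) read; washed biofilms stained with 20 μM resazurin 30 min at 37 °C, then ethanol-fixed and crystal violet-stained, absorbance 595 nm.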

S. aureus ATCC 25923 [2] = test: Antibacterial activity, pre-exposure (planktonic cells and biofilm formation); type: cell-based, Staphylococcus aureus; settings: for MIC / inhibition at 5 µM / inhibition at 10 µM / inhibition at 15 µM / inhibition at 25 µM: Staphylococcus aureus, ATCC25923; for inhibition at 5 µM / inhibition at 10 µM / inhibition at 15 µM / inhibition at 25 µM / Average inhibition %, biofilms viability / Average inhibition %, planktonic cells viability: pre-exposure, ± SD
Summary of the method: (§1)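 Growth prevention was tested by adding compounds together with the inoculum. Plates were incubated 18 h at 37 °C. Viability was read by resazurin fluorescence and biomass by crystal violet absorbance at 595 nm.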

A. baumannii NCTC 13423 = test: Antibacterial activity, pre-exposure; type: cell-based, Acinetobacter baumannii; settings: for Average inhibition %, biofilms viability / Average inhibition %, planktonic cells viability / inhibition at 10 µM / inhibition at 15 µM / inhibition at 25 µM / inhibition at 50 µM: A. baumannii NCTC 13423, pre-exposure, ± SD; for inhibition at 10 µM / inhibition at 15 µM / inhibition at 25 µM / inhibition at 50 µM / MIC: Acinetobacter baumannii, NCTC13423
Summary of the method: as §1

P. aeruginosa ATCC 9027 = test: Antibacterial activity, pre-exposure; type: cell-based, Pseudomonas aeruginosa; settings: for Average inhibition %, biofilms viability / Average inhibition %, planktonic cells viability / inhibition at 50 µM / inhibition at 100 µM / inhibition at 150 µM / inhibition at 200 µM: P. aeruginosa ATCC 9027, pre-exposure, ± SD; for MIC / inhibition at 50 µM / inhibition at 100 µM / inhibition at 150 µM / inhibition at 200 µM: Pseudomonas aeruginosa; for inhibition at 50 µM / inhibition at 100 µM / inhibition at 150 µM / inhibition at 200 µM: ATCC9027
Summary of the method: as §1

[3] = read-out: Average inhibition %, biofilms biomass
[4] = read-out: Average inhibition %, planktonic cells turbidity
[5] = 10 µM, read-out: Average inhibition %, biofilms biomass
[6] = 10 µM, read-out: Average inhibition %, planktonic cells turbidity
[7] = 15 µM, read-out: Average inhibition %, biofilms biomass
[8] = 15 µM, read-out: Average inhibition %, planktonic cells turbidity
[9] = 25 µM, read-out: Average inhibition %, biofilms biomass
[10] = 25 µM, read-out: Average inhibition %, planktonic cells turbidity
[11] = 50 µM, read-out: Average inhibition %, biofilms biomass
[12] = 50 µM, read-out: Average inhibition %, planktonic cells turbidity

## CCCCCCCCc1ccc(CC(N)(CO)CO)cc1 [Compound 44, 2-Amino-2-(4-octylbenzyl)propane-1,3-diol]
S. aureus ATCC 25923 [1]; 25 µM
  Average inhibition %, biofilms viability: 21 ± 11.5%
  Average inhibition %, planktonic cells viability: 3.8 ± 6.6%
S. aureus ATCC 25923 [1]; 50 µM
  Average inhibition %, biofilms viability: 38.2 ± 8.2%
  Average inhibition %, planktonic cells viability: 56.1 ± 15.4%
S. aureus ATCC 25923 [1]; 100 μM
  Inhibition of viability and total biomass of preformed biofilms: at least 70%
S. aureus ATCC 25923 [1]; 100 µM
  Average inhibition %, biofilms viability: 74 ± 21.5%
  Average inhibition %, planktonic cells viability: 99.8 ± 0.6%
S. aureus ATCC 25923 [1]; 200 µM
  Average inhibition %, biofilms viability: 98.5 ± 0.1%
  Average inhibition %, planktonic cells viability: 100.1 ± 0.1%
S. aureus ATCC 25923 [1]; [3]
  inhibition at 25 µM: 36 ± 3.3%
  inhibition at 50 µM: 51.6 ± 10.7%
  inhibition at 100 µM: 70.5 ± 19.2%
  inhibition at 200 µM: 92 ± 1.2%
S. aureus ATCC 25923 [1]; [4]
  inhibition at 25 µM: 6.1 ± 10.6%
  inhibition at 50 µM: 58.6 ± 10.2%
  inhibition at 100 µM: 84.7 ± 3.3%
  inhibition at 200 µM: 85.9 ± 5.3%
S. aureus ATCC 25923 [2]; lowest concentration with no visible growth (>90% inhibition of turbidity and viability of planktonic cells), 18 h, read-out: MIC S. aureus ATCC 25923
  MIC: 15 to 25 µM (≈ 4.4 to 7.34 µg/mL)
S. aureus ATCC 25923 [2]; 5 µM, read-out: Average inhibition %, biofilms biomass
  inhibition at 5 µM: 23.2 ± 23.4%
S. aureus ATCC 25923 [2]; 5 µM, read-out: Average inhibition %, planktonic cells turbidity
  inhibition at 5 µM: 18.4 ± 6.2%
S. aureus ATCC 25923 [2]; [5]
  inhibition at 10 µM: 36.6 ± 27.8%
S. aureus ATCC 25923 [2]; [6]
  inhibition at 10 µM: 31.2 ± 8.9%
S. aureus ATCC 25923 [2]; [7]
  inhibition at 15 µM: 76.6 ± 21.5%
S. aureus ATCC 25923 [2]; [8]
  inhibition at 15 µM: 79.2 ± 28.2%
S. aureus ATCC 25923 [2]; [9]
  inhibition at 25 µM: 93.1 ± 4.2%
S. aureus ATCC 25923 [2]; [10]
  inhibition at 25 µM: 99.1 ± 0.7%
S. aureus ATCC 25923 [2]; read-out: MIC (S. aureus)
  MIC: 15 to 25 µM (≈ 4.4 to 7.34 µg/mL)
S. aureus ATCC 25923 [2]; 5 µM
  Average inhibition %, biofilms viability: 24.9 ± 12.6%
  Average inhibition %, planktonic cells viability: 0 ± 0%
S. aureus ATCC 25923 [2]; 10 µM
  Average inhibition %, biofilms viability: 44.4 ± 4.9%
  Average inhibition %, planktonic cells viability: 0 ± 0%
S. aureus ATCC 25923 [2]; 15 µM
  Average inhibition %, biofilms viability: 76.2 ± 29.5%
  Average inhibition %, planktonic cells viability: 66.8 ± 54.1%
S. aureus ATCC 25923 [2]; 25 µM
  Average inhibition %, biofilms viability: 99.7 ± 0%
  Average inhibition %, planktonic cells viability: 100 ± 0.2%
A. baumannii NCTC 13423; 10 µM
  Average inhibition %, biofilms viability: 0.6 ± 1%
  Average inhibition %, planktonic cells viability: 12.3 ± 2.4%
A. baumannii NCTC 13423; 15 µM
  Average inhibition %, biofilms viability: 8.6 ± 7.8%
  Average inhibition %, planktonic cells viability: 9.2 ± 5.8%
A. baumannii NCTC 13423; 25 µM
  Average inhibition %, biofilms viability: 88.7 ± 15.2%
  Average inhibition %, planktonic cells viability: 83.5 ± 27.6%
A. baumannii NCTC 13423; 50 µM
  Average inhibition %, biofilms viability: 99.9 ± 1%
  Average inhibition %, planktonic cells viability: 99.8 ± 0.5%
A. baumannii NCTC 13423; [5]
  inhibition at 10 µM: 0%
A. baumannii NCTC 13423; [6]
  inhibition at 10 µM: 0%
A. baumannii NCTC 13423; [7]
  inhibition at 15 µM: 5.6 ± 6.5%
A. baumannii NCTC 13423; [8]
  inhibition at 15 µM: 2.8 ± 3.7%
A. baumannii NCTC 13423; [9]
  inhibition at 25 µM: 69.4 ± 13.7%
A. baumannii NCTC 13423; [10]
  inhibition at 25 µM: 88.1 ± 19%
A. baumannii NCTC 13423; [11]
  inhibition at 50 µM: 86.2 ± 2.3%
A. baumannii NCTC 13423; [12]
  inhibition at 50 µM: 98.3 ± 1.2%
A. baumannii NCTC 13423; pre-exposure, Inactive = no activity up to 50 μM, > = some inhibition but no MIC reached, read-out: MIC A. baumannii NCTC 13423
  MIC: 25 to 50 µM (≈ 7.34 to 14.7 µg/mL)
A. baumannii NCTC 13423; supplementary molecular formula strings sheet, read-out: MIC (A. baumannii)
  MIC: 25 to 50 µM (≈ 7.34 to 14.7 µg/mL)
P. aeruginosa ATCC 9027; 50 µM
  Average inhibition %, biofilms viability: 9 ± 8%
  Average inhibition %, planktonic cells viability: 31.4 ± 12.8%
P. aeruginosa ATCC 9027; 100 µM
  Average inhibition %, biofilms viability: 43 ± 44.4%
  Average inhibition %, planktonic cells viability: 95.8 ± 3.5%
P. aeruginosa ATCC 9027; 150 µM
  Average inhibition %, biofilms viability: 42.2 ± 50.3%
  Average inhibition %, planktonic cells viability: 92.1 ± 9.3%
P. aeruginosa ATCC 9027; 200 µM
  Average inhibition %, biofilms viability: 34.5 ± 36.6%
  Average inhibition %, planktonic cells viability: 88.7 ± 10.2%
P. aeruginosa ATCC 9027; ATCC9027, pre-exposure, Inactive = no activity up to 200 μM, > = some inhibition but no MIC reached, read-out: MIC P. aeruginosa ATCC 9027
  MIC: > 200 µM
P. aeruginosa ATCC 9027; ATCC9027, supplementary molecular formula strings sheet, read-out: MIC (P. aeruginosa)
  MIC: > 200 µM
P. aeruginosa ATCC 9027; [11]
  inhibition at 50 µM: 35.2 ± 19.9%
P. aeruginosa ATCC 9027; [12]
  inhibition at 50 µM: 28.4 ± 10.9%
P. aeruginosa ATCC 9027; 100 µM, read-out: Average inhibition %, biofilms biomass
  inhibition at 100 µM: 57.7 ± 30.4%
P. aeruginosa ATCC 9027; 100 µM, read-out: Average inhibition %, planktonic cells turbidity
  inhibition at 100 µM: 93.7 ± 2.6%
P. aeruginosa ATCC 9027; 150 µM, read-out: Average inhibition %, biofilms biomass
  inhibition at 150 µM: 54.7 ± 35.2%
P. aeruginosa ATCC 9027; 150 µM, read-out: Average inhibition %, planktonic cells turbidity
  inhibition at 150 µM: 92.2 ± 4.8%
P. aeruginosa ATCC 9027; 200 µM, read-out: Average inhibition %, biofilms biomass
  inhibition at 200 µM: 48.7 ± 28.5%
P. aeruginosa ATCC 9027; 200 µM, read-out: Average inhibition %, planktonic cells turbidity
  inhibition at 200 µM: 88.5 ± 4.4%
